Where a name gives a salt, the structure may show the parent alone. Read-outs that look alike come from different tables or passages of the source.
How the values were obtained:
[1] = Interaction of perfume components with cyclodextrin (CD); assay type: physicochemical; conditions: perfume component with cyclodextrin
Description: The following table illustrates the molecular weight property of some of the preferred perfume versus non-preferred perfume components.
Examples of Perfume Components for CD Interaction

[2] = cited from earlier work
[3] = cited from earlier work; remark: listed apart in the source
[4] = Elevation in surface tension of surfactant solution in the presence of cyclodextrin; assay type: physicochemical; conditions: in the presence of a typical cyclodextrin (about 1% solution)
Description: Suitable cyclodextrin-compatible surfactants can be readily identified by the absence of effect of cyclodextrin on the surface tension provided by the surfactant. This is achieved by determining the surface tension (in dyne/cm) of aqueous solutions of the surfactant in the presence and in the absence of about 1% of a specific cyclodextrin in the solutions. The aqueous solutions contain surfactant at concentrations of approximately 0.5%, 0.1%, 0.01%, and 0.005%. The cyclodextrin can affect the surface activity of a surfactant by elevating the surface tension of the surfactant solution. If the surface tension at a given concentration in water differs by more than about 10% from the surface tension of the same surfactant in the 1% solution of the cyclodextrin, that is an indication of a strong interaction between the surfactant and the cyclodextrin. The preferred surfactants herein should have a surface tension in an aqueous solution that is different (lower) by less than about 10%, preferably less than about 5%, and more preferably less than about 1% from that of the same concentration solution containing 1% cyclodextrin.
The cyclodextrin-compatible surfactants described above are either weakly interactive with cyclodextrin (less than 5% elevation in surface tension), or non-interactive (less than 1% elevation in surface tension).

Molecule	CD interaction [1]	further results
CCCCCC1C(=O)CCC1CC(=O)OC (centres unmarked) [Methyl Dihydro Jasmonate]	weak	–
CC(=O)OC1CCC(C(C)(C)C)CC1 (centres unmarked) [Vertenex, para-tert-butylcyclohexyl acetate]	strong	–
Cn1sc2c(c1=O)CCC2 [Promexal, 2-methyl-4,5-trimethylene-4-isothiazolin-3-one]	–	stability over a wide pH range [2]: 4-12
[H]/N=C(\N/C(=N/[H])NCCCCCCNC(=N)NC(=N)Nc1ccc(Cl)cc1)Nc1ccc(Cl)cc1 [digluconate salt, 1,1'-hexamethylene bis(5-(p-chlorophenyl)biguanide), reference compound]	–	solubility in water ([3]; in water): about 70%
CC(=O)/C=C/C1C(C)=CCCC1(C)C (centres unmarked) [a-ionone]	strong	–
CC(C)(O)C(Cl)(Cl)Cl [chlorobutanol, 1,1,1-Trichloro-2-methylpropan-2-ol]	–	solubility in water ([3]; in water): about 0.8%
[Na+].[O-][n+]1ccccc1[S-] [sodium pyrithione]	–	solubility in water ([3]; in water): about 50%
CCC(=O)OC1CC2CC1C1CC=CC21 (centres unmarked) [Frutene]	strong	–
CC(=O)C(C)=C(C)C(C)C(C)(C)C (centres unmarked) [Koavone]	strong	–
CCOC(=O)c1ccccc1C(=O)OCC [Diethyl Phthalate]	weak	–
[H]/N=C(\N/C(=N/[H])NCCCCCCNC(=N)NC(=N)Nc1ccc(Cl)cc1)Nc1ccc(Cl)cc1 [diacetate salt, 1,1'-hexamethylene bis(5-(p-chlorophenyl)biguanide), reference compound]	–	solubility in water ([3]; in water): about 1.8%
CCCCCCCCCCCCCC(=O)OC(C)C [Iso-propyl Myristate]	weak	–
CCCCCCOC(=O)c1ccccc1O [Hexyl Salicylate]	weak	–
CC(=O)OC(C)(C)C1CC=C(C)CC1 (centres unmarked) [Terpinyl Acetate]	significant	–
OCCc1ccccc1 [2-phenylethanol]	–	solubility in water ([3]; in water): about 2%
CC(C)(O)CCCC1=CCC(C=O)CC1 (centres unmarked) [Lyral]	weak	–

Molecule	CD interaction [1]	further results
dodecanolpoly(6)ethoxylate	–	elevation in surface tension [4]: > 10%
O=C(Cc1ccccc1)OCCc1ccccc1 [Phenyl-Ethyl-Phenyl Acetate]	weak	–
CC(C=O)Cc1ccc(C(C)(C)C)cc1 (centres unmarked) [Lilial, Lilial (p-t-bucinal)]	strong	–
CC1COCc2cc3c(cc21)C(C)(C)C(C)C3(C)C (centres unmarked) [Galaxolide]	weak	–
ClC=CC[N+]12CN3CN(CN(C3)C1)C2.[Cl-] [Dowicil 200, 1-(3-Chlorallyl) -3,5,7-triaza-1-azoniaadamantane chloride]	–	solubility in water ([3]; result in words): freely soluble in water
O=[N+]([O-])C1(Br)COCOC1 [Bronidox L, 5-bromo-5-nitro-1,3-dioxane]	–	solubility in water ([3]; in water): about 0.46%
OCCOc1ccccc1 [2-phenoxyethanol]	–	solubility in water ([3]; in water): about 2.67%
a-Me Ionone	strong	–
CC(C=O)Cc1ccc(C(C)C)cc1 (centres unmarked) [Cymal]	strong	–
CCCCCCC(C=O)=Cc1ccccc1 [Hexyl cinnamic Aldehyde]	weak	–
O=c1[nH]sc2ccccc12 [Proxel, 1,2-benzisothiazolin-3-one]	–	stability over a wide pH range [2]: 4-12
CC(=O)C1(C)CC2=C(CCCC2(C)C)CC1C (centres unmarked) [Iso-E Super]	weak	–
CCCCCCCCCCCCOS(=O)(=O)[O-].[Na+] [sodium dodecyl sulfate]	–	elevation in surface tension [4]: > 10%
CC1(C)C(=O)N(CO)C(=O)N1CO [DMDM hydantoin, 1,3-bis(hydroxymethyl)-5,5-dimethyl-2,4-imidazolidinedione]	–	solubility in water ([3]; in water): more than 50%
CC(=O)OC1CC2CC1C1CC=CC21 (centres unmarked) [Flor Acetate]	strong	–
OCc1ccccc1 [benzyl alcohol]	–	solubility in water ([3]; in water): about 4%

Reference: patent EP1212395B1, “IMPROVED METHODS, COMPOSITIONS, AND ARTICLES FOR ODOR CONTROL” (THE PROCTER & GAMBLE COMPANY, priority 1999, dated 2001)
